Source: patent publication US20100003217A1, “Compounds and Pharmaceutical Compositions for the Treatment of Viral Infections” (priority 2008, published 2010)

Legend:
[1] = Incubation with human liver cytosol; format: in vitro ADME; settings: human cytosol 1 mg/mL, 2 hours, 10 μM
Procedure: (§1) Pooled liver cytosol (1.0 mg protein/mL) suspended in incubation buffer (0.1 M potassium phosphate, pH 7.4) was incubated for 2 hours at 37° C. with 10 μM Compound 1 from a stock solution in DMSO (final DMSO concentration was 0.1%); reaction was initiated with the addition of test article. Incubations with no protein served as control. Reactions were terminated by the addition of 0.1 mL of stop solution (acetonitrile). The samples were vortex-mixed for 30 sec and then centrifuged at 10,000×g for 10 min. The supernatant was dried using a Labconco CentriVap concentrator and the dry residue reconstituted in water, transferred to an HPLC glass vial and analyzed by HPLC-UV method 2 (described above).
(§2) Metabolic stability of the proposed metabolites was conducted by incubating the chemically synthesized standards Compound 2, Compound 4 and Compound 3 as described above for Compound 1. When possible, formation of Compound 5 was verified by incubating samples with alkaline phosphatase (10 U) for 60 min at 37° C.

[2] = Incubation with monkey liver cytosol; format: in vitro ADME; settings: monkey cytosol 1 mg/mL, 2 hours, 10 μM
Procedure: as §1, §2

[3] = Stability in rat liver microsomes; format: in vitro ADME; settings: rat liver microsomes 1 mg/mL, 15 min, 10 μM
Procedure: Disappearance of parent Compound 1 was used to evaluate the in vitro metabolism thereof. Relative levels of unchanged Compound 1 were measured by HPLC-UV method 1. Residual Compound 1 is reported as percent difference from time zero or control. The HPLC-UV system was as follows:
Incubations with liver microsomes or cytosol were conducted in a final volume of 0.1 mL per incubation time point. […] DMSO (final DMSO concentration was 0.1%) was incubated at 37° C. from 0-60 min with pooled microsomal protein (1.0 mg/mL), suspended in incubation buffer (0.1 M potassium phosphate, pH 7.4, 5 mM MgCl2, and 0.1 mM EDTA). The microsomal reaction was initiated by the addition of NADPH (3 mM final concentration). Incubations with (a) no protein or (b) no NADPH served as controls. Reactions were terminated by the addition of 0.2 mL of stop solution (acetonitrile). The samples were vortex-mixed for 30 sec and then centrifuged at 10,000×g for 10 min. The supernatant was dried using a Labconco CentriVap concentrator and the dry residue reconstituted in water, transferred to an HPLC glass vial and analyzed by HPLC-UV method 1 (described above).
as §2

[4] = Metabolite profile in rat urine; format: in vivo, male Sprague-Dawley rats; settings: for Percent of Dose, Urine 0-24 h: after [14C]Compound 1
Procedure: Pooled urine samples were prepared for Groups 1C and 2C by mixing a fixed percent of the total volume for all four animals from the selected time points. For Group 1C, samples of the 1-, 2-, 6-, and 24-h collection intervals were pooled. For Group 2C, a pool of samples from all four animals was prepared for the 24 h collection intervals only. For 1-, 2-, and 6 h collection intervals, a urine sample of a single animal of Group 2A or 2B was used for analysis. All samples were brought to room temperature and vortexed briefly. The samples were diluted as necessary (2- to 20-fold) with appropriate aqueous mobile phase for the selected HPLC method. The pooled and diluted samples from the 24 h collection interval were centrifuged at 2040×g for 10 minutes. All other samples were analyzed without centrifugation. HPLC method 1 was used for HPLC profiling. Selected samples were analyzed by HPLC method 2 for comparison with the metabolite profile generated by microsomal and hepatocyte incubations (Examples 14 and 15) and with the metabolite profile of liver extracts.
Percent of the administered dose (% AD) for parent drug and each metabolite at each collection period=(% of the total radioactivity in the sample attributed to the metabolite)*(total radioactivity expressed as % of the administered dose, recovered during the corresponding collection period).
HPLC analyses of pooled urine samples of all time points were conducted for Group 1C. Metabolites R1, R2, R3, R4, R5, R6, R7 and R8 were characterized based on retention time.
For the PO dose group, a pooled urine sample from the 24-h collection time was analyzed. For 1-, 2-, and 6-h collection times, the majority of the samples had been used for radioanalysis. The remaining samples were insufficient for proportional pooling. Therefore, single animal samples of […] groups were used for HPLC profiling. Metabolites R^1, R^2, R^3, R^4, R^5, R^6, R^7 and R^8 were characterized based on retention time.
Table 50 contains data from single animal samples and pooled samples. To estimate overall distribution of urinary metabolites, it was assumed that the profile from a single animal is reflective of the overall average metabolite profile. Therefore, HPLC distribution data from single animals was used to calculate the percentage of administered dose excreted as various metabolites during the 1-, 2-, and 6-h collection intervals. Metabolites R1, R2, R3, R4, R5, R6, R7 and R8 were characterized based on retention time.

[5] = PO dose urine, 2 h collection, single animal (#20, Group 2B)
[6] = group 1C (IV dose) pooled urine, 1 h collection
[7] = group 1C (IV dose) pooled urine, 2 h collection
[8] = group 1C (IV dose) pooled urine, 6 h collection
[9] = group 1C (IV dose) pooled urine, 24 h collection

## C[C@@]1(O)[C@H](O)[C@@H](COP(=O)(O)NCc2ccccc2)O[C@H]1n1cnc2c(=O)[nH]c(N)nc21 [Compound 2, [(2R)-2-methyl-β-D-ribofuranosyl]guanine-N-benzylaminyl-5′-monophosphate]
[1]
  Residual compound following incubation with liver cytosol: 0%
[2]
  Residual compound following incubation with liver cytosol: 0%
[3]; NADPH
  % Residual Compound 2: 0%
[3]; No Cofactor
  % Residual Compound 2: 0%
[4]; IV
  Percent of Dose, Urine 0-24 h: 0.76% of Dose
[4]; Oral
  Percent of Dose, Urine 0-24 h: 0.001% of Dose
[4]; [5]
  % AD (percent of administered dose): 0.002 % AD
  % HPLC (percent of HPLC peak area in the sample extract): 1.81%
[4]; estimated profile, group 2C (PO dose) urine
  % of total urinary excretion, estimated: 0.03%
[4]; estimated profile, group 2C (PO dose) urine, 2 h, from single animal HPLC distribution and mean % AD
  % AD, estimated: 0.001 % AD
[4]; estimated profile, group 2C (PO dose) urine, 2 h, single animal % HPLC distribution
  % HPLC (percent of HPLC peak area in the sample extract): 1.81%
[4]; estimated profile, group 2C (PO dose) urine, total of all collections
  Total % AD, estimated: 0.001 % AD
[4]; [6]
  % AD (percent of administered dose): 0.52 % AD
  % HPLC (percent of HPLC peak area in the sample extract): 2.29%
[4]; [7]
  % AD (percent of administered dose): 0.13 % AD
  % HPLC (percent of HPLC peak area in the sample extract): 2.57%
[4]; [8]
  % AD (percent of administered dose): 0.03 % AD
  % HPLC (percent of HPLC peak area in the sample extract): 1.40%
[4]; [9]
  % AD (percent of administered dose): 0.07 % AD
  % HPLC (percent of HPLC peak area in the sample extract): 0.45%
[4]; group 1C (IV dose) urine
  % of total urinary excretion: 1.62%
[4]; group 1C (IV dose) urine, total of all collections
  Total % AD: 0.76 % AD
